The values that follow come from patent publication US20050014845A1, “Ambroxol for the treatment of epilepsy” (Boehringer Ingelheim International GmbH, priority 2003, published 2005).

The subject of assay [1] is centrally expressed neuronal sodium channels. The following applies: neuronal sodium channel subtypes, read-out: half-maximal inhibition of centrally expressed channels; cited from earlier work.
In a further assay the target is T1, human GluR1/2 receptors (Homo sapiens, UniProt P42261+P42262).
T1 construct: expressed in transfected cells; host or cells: HEK 293
T1 sequence (P42261 19-906): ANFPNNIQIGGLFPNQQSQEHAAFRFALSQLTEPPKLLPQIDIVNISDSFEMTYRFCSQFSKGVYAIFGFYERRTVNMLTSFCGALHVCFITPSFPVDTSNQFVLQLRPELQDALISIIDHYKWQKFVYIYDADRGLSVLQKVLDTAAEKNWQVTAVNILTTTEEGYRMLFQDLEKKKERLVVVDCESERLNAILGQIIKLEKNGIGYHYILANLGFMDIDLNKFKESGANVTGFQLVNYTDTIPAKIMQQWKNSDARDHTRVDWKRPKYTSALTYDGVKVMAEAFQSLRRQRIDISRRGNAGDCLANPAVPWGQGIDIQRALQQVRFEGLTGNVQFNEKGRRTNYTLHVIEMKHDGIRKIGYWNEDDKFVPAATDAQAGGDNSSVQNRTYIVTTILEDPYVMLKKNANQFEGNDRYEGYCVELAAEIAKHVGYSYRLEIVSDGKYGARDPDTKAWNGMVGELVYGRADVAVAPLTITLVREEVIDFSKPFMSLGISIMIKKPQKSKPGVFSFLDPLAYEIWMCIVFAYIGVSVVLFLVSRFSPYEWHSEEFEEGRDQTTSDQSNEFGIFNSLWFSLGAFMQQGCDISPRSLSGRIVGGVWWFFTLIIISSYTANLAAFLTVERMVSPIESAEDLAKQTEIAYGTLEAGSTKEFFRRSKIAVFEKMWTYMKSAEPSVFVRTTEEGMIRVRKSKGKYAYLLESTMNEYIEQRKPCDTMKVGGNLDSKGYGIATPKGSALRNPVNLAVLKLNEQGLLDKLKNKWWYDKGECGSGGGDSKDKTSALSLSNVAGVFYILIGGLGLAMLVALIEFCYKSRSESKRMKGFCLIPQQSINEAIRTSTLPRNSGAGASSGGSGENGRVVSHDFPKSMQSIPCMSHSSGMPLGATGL
T1 sequence (P42262 22-883 limits assumed): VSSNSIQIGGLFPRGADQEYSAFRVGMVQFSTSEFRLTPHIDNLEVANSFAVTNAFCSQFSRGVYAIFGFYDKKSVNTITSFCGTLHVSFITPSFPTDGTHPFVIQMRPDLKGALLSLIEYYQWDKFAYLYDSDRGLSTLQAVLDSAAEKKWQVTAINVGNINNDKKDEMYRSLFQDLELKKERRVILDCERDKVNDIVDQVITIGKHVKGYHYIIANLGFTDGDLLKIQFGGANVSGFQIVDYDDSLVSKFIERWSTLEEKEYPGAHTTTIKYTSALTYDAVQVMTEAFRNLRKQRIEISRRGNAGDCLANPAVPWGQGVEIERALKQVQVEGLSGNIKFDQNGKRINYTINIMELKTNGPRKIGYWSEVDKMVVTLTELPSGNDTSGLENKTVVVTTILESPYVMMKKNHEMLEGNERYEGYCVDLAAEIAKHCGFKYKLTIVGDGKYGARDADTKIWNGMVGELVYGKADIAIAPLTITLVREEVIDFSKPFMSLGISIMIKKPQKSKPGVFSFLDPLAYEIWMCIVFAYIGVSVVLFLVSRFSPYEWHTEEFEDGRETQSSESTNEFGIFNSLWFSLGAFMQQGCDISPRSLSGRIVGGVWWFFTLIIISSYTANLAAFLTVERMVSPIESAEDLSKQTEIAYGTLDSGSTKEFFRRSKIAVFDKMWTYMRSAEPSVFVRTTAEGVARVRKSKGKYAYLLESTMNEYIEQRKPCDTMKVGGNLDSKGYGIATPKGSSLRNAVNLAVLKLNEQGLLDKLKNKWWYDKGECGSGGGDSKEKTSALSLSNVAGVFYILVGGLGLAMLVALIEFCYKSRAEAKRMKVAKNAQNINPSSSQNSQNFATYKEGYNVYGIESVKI
Kind of assay: Patch-Clamp of glutamate-induced membrane currents in HEK 293 cells expressing GluR1/2. The following applies: 1 mM glutamate for 1 s, holding potential −80 mV. In kind it is cell-based. The method, then: HEK 293 cells which expressed functionally recombinant human GluR1/2 receptors were electrophysiologically investigated by the Patch-Clamp method ([…]). The administration of 1 mM glutamate (for 1 s at a holding potential of −80 mV) induced membrane currents which were inhibited by the joint administration of ambroxol.
Background: The patch-clamp technique gives a direct electrical read-out from membranes.

Molecules are shown by their SMILES.

As for `Nc1c(Br)cc(Br)cc1CN[C@H]1CC[C@H](O)CC1` [ambroxol, trans-4-(2-amino-3,5-dibromobenzylamino)cyclohexanol], in assay [1], the IC50 is 111 µM. The “concentrations inhibiting glutamate-induced membrane currents” value at human GluR1/2 receptors lay in the range of 30 to 1000 µM.
